Test results from patent US11331294B2, “Benzoquinone derivative E3330 in combination with chemotherapeutic agents for the treatment of bladder cancer” (Indiana University Research and Technology Corporation, priority 2007, dated 2022).

Experiments:
bladder cancer cells = test: BrdU incorporation assay in cultured cells; format: cell-based; details: IC50 concentration, 24 hours; control 11.2%±0.84
Method: To determine the proliferation rate of cells in response to APE1/Ref-1 redox inhibitors, cells were grown in the culture conditions described above and treated with inhibitors as described above, in chamber slides. After 24 hours in culture with inhibitors or vehicle, all cells were treated with 3.1 μg/ml BrdU (in sterile PBS; 0.1%) for one hour. Cells were fixed and permeablized with 4% paraformaldehyde and stained for BrdU incorporation with the antibody and methodology described in the Roche BrdU labeling Kit, (Risch-Rotkreuz, Switzerland), using secondary antibodies. Positive cells were captured on a Leica 6000 fluorescent microscope and were quantified relative to Hoechst positive nuclei (total live cells).
To further characterize this effect, it was analyzed whether this reduced cell number was due to decreases in proliferation, increases in apoptosis, or both.

[1] = system: T24 human bladder cancer cells; test: T24 subcutaneous flank xenograft; format: in vivo, athymic nude mice; details: for tumor weight at sacrifice: ip every 12 hours, vehicle 1.0±0.2 g; for tumor growth compared to vehicle control / reduction in survivin expression in harvested tumors: ip twice daily
Method: […] T24 human bladder cancer cells were grown in conditions described above and harvested with 0.05% Trypsin, centrifuged, and resuspended in a 50:50 solution of Matrigel: RPMI medium. For each subcutaneous tumor, a 100 μl volume of this suspension was implanted in the hind flank of […]. […] BrdU was injected into the animals 2 hours prior to sacrifice and tumor tissues were harvested and split into either snap frozen tissues for protein harvest and molecular analysis or fixed in formalin and processed for histological analysis, and then analyzed for survivin, Cyclin D1 levels (immunofluorescence and immunoblotting) for target protein assessment and BrdU incorporation (immunofluorescence).
Prior to sacrifice, mice were injected with BrdU and BrdU incorporation was visualized and quantitated via red fluorescence.

STAT3 = test: STAT3-driven luciferase reporter; format: cell-based, human; details: T24 and UC3 cells induced with IL-6, IC50 concentration, 24 h
Method: FIGS. 36A-36H. […] In cytokine-induced T24 and UC3 cells NFκB-driven luciferase (FIG. 36A), STAT3-driven luciferase (FIG. 36B), and AP-1-driven luciferase (FIG. 36C) were quantified and normalized via Renilla following treatment with the corresponding cell growth-inhibitory IC50 concentrations. T24 cells were treated with APX2009 (8.5 μM) and APX2014 (6.5 μM), and UC3 cells were treated with APX2009 (6.1 μM) and APX2014 (4.6 μM) for 24 h. (*-p<0.05 APX treated vs vehicle, n=4). […] In the panels of FIGS. 36F & 36G, co-expression of survivin and APE1/Ref-1 was analyzed in superficial (FIG. 36F) and invasive human bladder tumors (FIG. 36G) in patients, and found nearly universal overlap of positivity in both in human samples. This was also true in cisplatin-refractory patients from the tissue microarray specimens (FIG. 36H).
The transcriptional activity of NFκB, STAT3, and AP-1 is under redox control by APE1/Ref-1. Therefore, NFκB, STAT3, or AP-1 transcriptional activity was quantified following treatment with APE1/Ref-1 redox inhibitors (FIGS. 36A-36C).

[2] = system: VEGF release from Hey-C2, SKOV-3X, Panc1, PaCa-2 and Igrov cells; test: VEGF ELISA on cancer cell supernatants; format: cell-based, human; details: normoxia and hypoxia, about 24 hrs
Method: Inhibition of VEGF release. VEGF enzyme-linked immunosorbent assay (ELISA). Various cancer cell lines were plated in a 24-well plate and treated in duplicates with for about 24 hrs in normoxic (about 21% oxygen) or hypoxic (about 2% oxygen) condition. The supernatants of cells were collected and subjected to an ELISA assay with a kit specific for human VEGF according to the manufacturer (R&D Systems, Minneapolis, Minn.) VEGF ELISA assay results were read in a 96-well format plate reader by measuring absorbance at 450 nm with correction at 540 nm. Hypoxia induced an increase in VEGF release (FIG. 2). (For FIGS. 2-7, black bars=normoxia; gray bars=hypoxia.)
VEGF ELISA Assays. Hey-C2 (ovarian cancer), SKOV-3X (ovarian cancer), Pancl (pancreatic cancer), PaCa-2 (pancreatic cancer), and Igrov (ovarian cancer) cells were plated in a 24-well plate and treated in duplicates with (RN3-3 e) at different concentrations for about 24 hrs in normoxic (about 21% oxygen) or hypoxic (about 2% oxygen) condition. The supernatants of cells were collected and subjected to an ELISA assay with a kit specific for human VEGF according to the manufacturer (R&D Systems, Minneapolis, Minn.). VEGF ELISA assay results were read in a 96-well format plate reader by measuring absorbance at 450 nm with correction at 540 nm.

[3] = system: subretinal neovascularization (SNV) in vldlr-/- retina; test: SNV in vldlr-/- knockout mice assay; format: in vivo; details: single intravitreal injection, one week after treatment
Method: SNV in vldlr−/− knockout mice assay. […] Experiments were carried out in very-low-density lipoprotein receptor (vldr) knockout mice to determine the effect of APX3330 on inhibition of SNV development in the vldlr−/− mutant. Each animal received a single intravitreal injection of 1 μl volume of BSS as a vehicle control and the fellow eye received 1 μl of […] APX3330. The final concentration of APX3330 was equivalent to approximately 20 μM in the retina. Quantitative measurement of SNV was carried out one week after the treatment in the whole mount retina after lectin-FITC staining. […] The apparent increase of SNV after antibody injection could be due to foreign protein triggered immune response which has been reported before (Tator et al., 2008). APX3330 reduced the number of SNV at a statistically significant level (p<0.01 in paired t-test). […] The Ape1/Ref-1 inhibitor offers a new approach to control angiogenesis for advanced macular degeneration (AMD) treatment.

SF767 glioma cells = test: Glioma cell migration (scratch) assay; format: cell-based; details: 100 μM, 48 h
Method: Glioma Cell Migration Assay. APX3330 was tested to determine if it would inhibit the migration ability of SF767 glioma cells. In order to do this, we plated 1.5×10^6 SF767 cells in a 60 mm tissue culture dish and allowed them to attach overnight and form a confluent monolayer. A scratch or wound was made across the plate using a 200 μL pipette tip as described previously (Liang 2007). The cells were then rinsed to remove floating cells and media contain 25, 50, 75 or 100 μM APX3330 or the appropriate vehicle control, DMSO. The drug-containing media was removed after 24 h and fresh media was added Images were taken at three marked places along the scratch at 0, 24, 36 and 48 h after the drug was added. Migration was quantified in ten uniform places for each image taken using Spot Software (Diagnostic Instruments, Sterling Heights, Mich.) to measure the distance in microns between the leading edges of the scratch. Each set of data, a total of thirty for each data point, was normalized to the migration of the vehicle control at 0 h and used to determine standard deviation.

[4] = APX3330 50 mg/kg, APX2009 25 mg/kg
[5] = APX3330 50 mg/kg, APX2009 25 mg/kg, immunoblot

SMILES	BrdU-positive cells (bladder cancer cells)	decrease in BrdU+ cells in tumors ([1]; APX2009 25 mg/kg ip twice daily) [%]	tumor weight at sacrifice [1, 4] [g]	tumor growth compared to vehicle control [1, 4]	reduction in survivin expression in harvested tumors [1, 5] [%]	ratio of cleaved caspase 3 to total caspase 3 in harvested tumors [1, 5]	STAT3 transcriptional activity (STAT3)	VEGF release [2]	individuals with reduced number of SNV in treated eye [3]	reduction of number of SNV [3] [%]	inhibition of migration compared to vehicle control (SF767 glioma cells) [fold]
CCC/C(=C\C1=C(OC)C(=O)c2ccccc2C1=O)C(=O)N(CC)CC [APX2009, [(2E)-2-[(3-methoxy-1,4-dioxo-1,4-dihydronaphthalen-2-yl)methylidene]-N,N-diethylpentanamide]]	6.9%±0.58	60	0.37 ± 0.14	significantly reduced tumor growth	64	increase in the ratio of cleaved caspase 3	significantly blocked	–	–	–	–
CCCCCCCCC/C(=C\C1=C(C)C(=O)C(OC)=C(OC)C1=O)C(=O)O [APX3330]	7.8%±0.64	–	0.43 ± 0.10	significantly reduced tumor growth	42	–	–	reduced the amount of VEGF release	17/20	~30	4.0
